# Experimental data: patent publication US9403776B2, “Aryl- and heteroaryl-substituted tetrahydrobenzazepines and use thereof to block reuptake of norepinephrine, dopamine, and serotonin” (Albany Molecular Research, Inc., priority 2005, dated 2016)
# Structures can show the parent of a compound that is named as a salt.
row,SMILES,melting point [°C]
1,"CN1CCC(c2ccc(Cl)cc2)c2ccc(-c3cnccn3)cc2C1 (single isomer, unassigned; (-)) (as salt: maleate) [Example 41 (−), (−)-5-(4-chlorophenyl)-2-methyl-8-(pyrazin-2-yl)-2,3,4,5-tetrahydro-1H-benzo[c]azepine]",82 to 84
2,"Cc1noc(C)c1-c1ccc2c(c1)CN(C)CCC2c1ccc(Cl)cc1 (single isomer, unassigned; (-)) (as salt: maleate) [Example 42, (−)-5-(4-chlorophenyl)-8-(3,5-dimethylisoxazol-4-yl)-2-methyl-2,3,4,5-tetrahydro-1H-benzo[c]azepine]",66 to 68
3,"CN1CCC(c2ccc(Cl)cc2)c2ccc(-c3ccc(N(C)C)nn3)cc2C1 (single isomer, unassigned; (-)) (as salt: maleate) [Example 46, (−)-{6-[5-(4-chlorophenyl)-2-methyl-2,3,4,5-tetrahydro-1H-benzo[c]azepine-8-yl]-pyridazin-3-yl}-dimethylamine]",109 to 110
4,"CN1CCC(c2ccc(Cl)cc2)c2ccc(N3CCOCC3)cc2C1 (single isomer, unassigned; (-)) (as salt: maleate) [Example 47, (−)-4-(5-(4-chlorophenyl)-2-methyl-2,3,4,5-tetrahydro-1H-benzo[c]azepin-8-yl)morpholine]",99 to 100
5,"COc1ccc2c(c1)CN(C)CCC2c1ccc2sccc2c1 (single isomer, unassigned; (-)) (as salt: maleate) [Example 52 (−), (−)-5-benzo[b]thiophen-5-yl-8-methoxy-2-methyl-2,3,4,5-tetrahydro-1H-benzo[c]azepine]",92 to 95
6,"CCN1CCC(c2ccccc2)c2ccc(N3CCOCC3)cc2C1 (single isomer, unassigned; (-)) (as salt: maleate) [Example 57 (−), (−)-4-(2-ethyl-5-phenyl-2,3,4,5-tetrahydro-1H-benzo[c]azepin-8-yl)morpholine]",68 to 72
7,"CC(C)N1CCC(c2ccccc2)c2ccc(N3CCOCC3)cc2C1 (single isomer, unassigned; (-)) (as salt: maleate) [Example 58 (−), (−)-4-(2-isopropyl-5-phenyl-2,3,4,5-tetrahydro-1H-benzo[c]azepin-8-yl)morpholine]",195 to 197
8,"CN1CCC(c2ccccc2)c2ccc(N3CCN(c4ccccn4)CC3)cc2C1 (single isomer, unassigned; (-)) (as salt: tartrate) [Example 68 (−), (−)-2-methyl-5-phenyl-8-(4-(pyridine-2-yl)piperazin-1-yl)-2,3,4,5-tetrahydro-1H-benzo[c]azepine]",112 to 115
9,"Cc1ccc(-c2ccc3c(c2)CN(C)CCC3c2ccc(C#N)c(F)c2)nn1 (single isomer, unassigned; (-)) (as salt: tartrate) [Example 92 (−), (−)-2-fluoro-4-(2-methyl-8-(6-methylpyridazin-3-yl)-2,3,4,5-tetrahydro-1H-benzo[c]azepin-5-yl)benzonitrile]",122 to 127
